Reference: patent US20040133938A1, “Use of lipoic acid in plant culture media” (priority 2002, published 2004)

Test system: MicroTom cotyledon explants
Assay: MicroTom Agrobacterium transformation: shoot regeneration, transformation efficiency, escapes
Assay type: cell-based, Lycopersicon esculentum
Conditions: for % of explants producing shoots (>1 cm in length): selection medium; for % of shoots that were escapes (did not root on selection medium): kanamycin selection
Procedure: This example describes the use of lipoic acid in an Agrobacterium-based tomato transformation process. MicroTom (a cultivar of tomato species: Lycopersicon esculentum) seeds from Tomato Growers (Ball Seed Co., West Chicago, Ill. USA) were surface-sterilized by first soaking for 10 min in sterile deionized water, removing the water, and then adding enough 70% ethanol to immerse the seeds for 1 min while stirring vigorously and then aspirating the ethanol. The seeds were rinsed 2× with sterile deionized water and then soaked in 25% Chlorox with 1-2 drops of Tween 20 for 10 min while stirring frequently. The seeds were rinsed 3× with sterile deionized water. The seeds were germinated in phytatrays containing Davis Germination medium (4.3 g/L MS salts, 2 ml/L Gamborg's B-5 500× salts, 20 g/L sucrose and 10 g/L agar) (approximately 120 seeds/container), and the phytatrays were wrapped with aluminum foil. The phytatray cultures were maintained at 28° C. under the dark for 5 days. After 5 days, the phytatray cultures were unwrapped and grown at 24° C. under a 16 h photoperiod for about 44 h.
Agrobacterium containing the desired transformation vector with a selectable marker (nptII for kanamycin selection as shown in FIG. 1) was streaked on a fresh LBssck plate (LB, 200 mL; spectinomycin (50 mg/mL stock), 200 μL; streptomycin (50 mg/mL stock), 200 μL; kanamycin (50 mg/mL stock), 200 μL; chloramphenicol (CAP, 25 mg/mL stock), 200 μL) from a frozen glycerol stock, and grown at about 28° C. for 3-4 days. One day before inoculation, a loopful of the bacterium cells from the freshly streaked plate was inoculated into 2 mL of LB+(LB, 200 mL; spectinomycin or streptomycin (50 mg/mL stock), 400 μL; kanamycin (50 mg/mL stock), 200 μL; chloramphenicol (CAP, 25 mg/mL stock), 200 μL) without acetosyringone, and grown at about 28° C. on a rotator at the speed between medium to high overnight. Then, 0.2 mL of the overnight bacterium culture was inoculated into 2 mL of LB+0.2 mM acetosyringone, and grown at about 28° C. on a rotator at the speed between medium to high for 4 hours.
Four hours after the sub-culture, the bacterium growth phase was measured using the spectrophotometer. The final O.D.660 of the bacterium culture was between about 0.9 and 1.4. The bacterium culture was diluted by adding the bacterium culture to TXD medium in a sterile tube based on the volume to get the working O.D.660=0.1.
Cotyledon explants were isolated from seedlings 7 days after sowing seeds on Davis Germination medium. Cotyledon explants were prepared by bathing them in 6 mL of TXD liquid medium (4.3 g/L MS salts, 2 mL/L Gamborg's B-5 500× salts, 4 mg/L pCPA (p-chlorophenoxyactic acid), 0.005 mg/L kinetin, and 30 g/L sucrose) to prevent desiccation and trimming them at both ends using a #15 feather blade. Immediately after the trimming, the cotyledon explants were gently placed on “feeder plates” containing UC2PC medium (2.2 g/L MS salts, 2.2 mL/L, Gamborg's B-5 500× salts, 0.2 mg/L 2,4-D, 4 mg/L pCPA, 0.1 mg/L kinetin, 30 g/L sucrose, 0.2 g/L potassium phosphate, 10 g/L agar, 8 mL/L acetosyringone (4.91 mg/mL), and 4 mL galacturonic acid (53.05 mg/mL)). The “feeder plates” are made by overlaying 2 mL of tobacco suspension cells and a sterile Whatman filter on the plates containing UC2PC medium. The cotyledon explants were gently poked with a sharp forceps (ASIM5311, Stainless French, made in Switzerland). Usually six to ten pokes were made per explant depending the size of cotyledons. Right after poking, the cotyledons were inoculated with Agrobacterium containing pMON15715 (FIG. 1) by adding 3 mL of the adjusted Agrobacterium solution on top of the cotyledons. The plates were incubated for 10 min at room temperature, and the Agrobacterium solution was aspirated with a sterile pipette. The cotyledons were then co-cultured for 2 days at 23-24° C. under a 16-h photoperiod. […]

In the case of `O=C(O)CCCCC1CCSS1` (stereo not drawn) [lipoic acid, 1,2-dithiolane-3-pentanoic acid], the “% of explants producing shoots (>1 cm in length)” value (shortened to “% of explants producing shoots”) (5 μM lipoic acid, 45 explants) is reported as 68.9%, the “% of resp. explant producing transgenic plants” value (5 μM lipoic acid, MicroTom) is reported as 78.6% and the “% of transgenic plants/shoot” value (5 μM lipoic acid, MicroTom) is reported as 43.9%. The “Efficiency (stable transformation efficiency, percentage of transgenic plants produced per explant)” value (5 μM lipoic acid, MicroTom) was 155.1%, the “No. of total shoots produced/explant” value (5 μM lipoic acid, MicroTom) was 3.53 and the “No. of total shoots produced/resp. explant” value (5 μM lipoic acid, MicroTom) was 4.93. The “No. of transgenic plants produced/resp. explant” value (5 μM lipoic acid, MicroTom) was 2.25, the “TE (percentage of transgenic events produced per explant)” value (5 μM lipoic acid, MicroTom) was 78.3% and the “% of shoots that were escapes (did not root on selection medium)” value (5 μM lipoic acid) was 54.6%. The “% of explants producing shoots” value (10 μM lipoic acid, 46 explants) was 67.4%, the “% of resp. explant producing transgenic plants” value (10 μM lipoic acid, MicroTom) was 74.2% and the “% of transgenic plants/shoot” value (10 μM lipoic acid, MicroTom) was 42.9%. The “Efficiency (stable transformation efficiency, percentage of transgenic plants produced per explant)” value (10 μM lipoic acid, MicroTom) was 178.7%, the “No. of total shoots produced/explant” value (10 μM lipoic acid, MicroTom) was 4.17 and the “No. of total shoots produced/resp. explant” value (10 μM lipoic acid, MicroTom) was 6.19. The “No. of transgenic plants produced/resp. explant” value (10 μM lipoic acid, MicroTom) was 2.65, the “TE (percentage of transgenic events produced per explant)” value (10 μM lipoic acid, MicroTom) was 94.1% and the “% of shoots that were escapes (did not root on selection medium)” value (10 μM lipoic acid) was 58.3%. For the same molecule, the “% of explants producing shoots” value (50 μM lipoic acid, 49 explants) was 61.2%, the “% of resp. explant producing transgenic plants” value (50 μM lipoic acid, MicroTom) was 67.9% and the “% of transgenic plants/shoot” value (50 μM lipoic acid, MicroTom) was 48.0%. For the same molecule, the “Efficiency (stable transformation efficiency, percentage of transgenic plants produced per explant)” value (50 μM lipoic acid, MicroTom) was 144.1%, the “No. of total shoots produced/explant” value (50 μM lipoic acid, MicroTom) was 3.00 and the “No. of total shoots produced/resp. explant” value (50 μM lipoic acid, MicroTom) was 4.83. For the same molecule, the “No. of transgenic plants produced/resp. explant” value (50 μM lipoic acid, MicroTom) was 2.35, the “TE (percentage of transgenic events produced per explant)” value (50 μM lipoic acid, MicroTom) was 76.4% and the “% of shoots that were escapes (did not root on selection medium)” value (50 μM lipoic acid) was 55.4%. The “% of explants producing shoots” value (100 μM lipoic acid, 43 explants) was 25.6%, the “% of resp. explant producing transgenic plants” value (100 μM lipoic acid, MicroTom) was 93.8% and the “% of transgenic plants/shoot” value (100 μM lipoic acid, MicroTom) was 50.6%. For the same molecule, the “Efficiency (stable transformation efficiency, percentage of transgenic plants produced per explant)” value (100 μM lipoic acid, MicroTom) was 112.1%, the “No. of total shoots produced/explant” value (100 μM lipoic acid, MicroTom) was 2.21 and the “No. of total shoots produced/resp. explant” value (100 μM lipoic acid, MicroTom) was 8.64. For the same molecule, the “No. of transgenic plants produced/resp. explant” value (100 μM lipoic acid, MicroTom) was 4.38, the “TE (percentage of transgenic events produced per explant)” value (100 μM lipoic acid, MicroTom) was 49.7% and the “% of shoots that were escapes (did not root on selection medium)” value (100 μM lipoic acid) was 57.1%. The “effect on total transgenic and non-transgenic shoot induction” value (lipoic acid from 5 μM to 50 μM) was “no inhibition effect”, the “increase of the stable transformation efficiency” value (summary, MicroTom, from 40%) was 6.5 fold and the stable transformation efficiency (summary, MicroTom, with lipoic acid) was “up to 260%”.
